Experimental data published in ChEMBL document CHEMBL4043066, “Drug Discovery Targeting Bromodomain-Containing Protein 4” (J Med Chem, 2017).

Legend:
MT4 = assay: Antiproliferative activity against human MT4 cells after 5 days by CellTiter-Glo assay; assay type: functional; details: MT4, 120 h
[1] = target: T1, Bromodomain-containing protein 4 (Homo sapiens, UniProt O60885); assay: Inhibition of BRD4 bromodomain 1 (unknown origin) using biotinylated substrate after 1 hr by AlphaLisa assay
MV4-11 [2] = assay: Antiproliferative activity against human MV4-11 cells after 72 hrs by alamarBlue assay; assay type: functional, cell-based; details: MV4-11, 72 h
MV4-11 [3] = assay: Antiproliferative activity against human MV4-11 cells after 4 days by CellTiter-Glo assay; assay type: functional, cell-based; details: MV4-11, 96 h
[4] = target: T1, Bromodomain-containing protein 4; assay: Inhibition of GST-tagged BRD4 (unknown origin) using biotinylated acetyl-histone H4 peptide as substrate after 30 mins by AlphaScreen assay
[5] = target: T1, Bromodomain-containing protein 4; assay: Inhibition of GST-tagged BRD4 bromodomain 1 (44 to 168 residues) (unknown origin) using biotinylated acetyl-histone H4 peptide as substrate after 30 mins in dark by AlphaScreen assay
[6] = target: T1, Bromodomain-containing protein 4; assay: Inhibition of His-epitope tagged BRD4 bromodomain 1 (44 to 168 residues) (unknown origin) using biotinylated histone H4 as substrate after 1 hr by AlphaScreen assay
[7] = target: T1, Bromodomain-containing protein 4; assay: Inhibition of His-epitope tagged BRD4 bromodomain 2 (333 to 460 residues) (unknown origin) using biotinylated histone H4 as substrate after 1 hr by AlphaScreen assay
[8] = target: T1, Bromodomain-containing protein 4; assay: Inhibition of recombinant human N-terminal His6-tagged BRD4 bromodomain 1 expressed in Escherichia coli BL21(DE3) using biotinylated histone peptide as substrate after 60 mins by TR-FRET assay
[9] = Antitumor activity against human JJN3R cells xenografted subcutaneously in mouse assessed as tumor growth inhibition at 1 mg/kg, po relative to control; assay type: functional; details: JJN-3R, read-out: TGI
[10] = target: T1, Bromodomain-containing protein 4; assay: Inhibition of biotin-labeled acetylated peptide binding to BRD4 bromodomain 1 (unknown origin) expressed in Escherichia coli BL21 after 1 hr by BROMOscan assay
MX1 [11] = assay: Antiproliferative activity against human MX1 cells incubated for >= 72 hrs by CellTiter-Glo assay; assay type: functional, cell-based; details: MX1, 72 h
[12] = Metabolic stability in human liver microsomes assessed as compound remaining at 1 uM after 30 mins in presence of NADPH by LC/MS analysis; assay type: ADME, microsome; details: read-out: Stability
[13] = Metabolic stability in CD1 mouse liver microsomes assessed as compound remaining at 1 uM after 30 mins in presence of NADPH by LC/MS analysis; assay type: ADME, microsome; details: read-out: Stability
MV4-11 [14] = assay: Antiproliferative activity against human MV4-11 cells; assay type: functional, cell-based
MV4-11 [15] = assay: Growth inhibition of human MV4-11 cells after 4 days by CellTiter-Glo assay; assay type: functional; details: MV4-11, 96 h
[16] = target: T1, Bromodomain-containing protein 4; assay: Inhibition of His-tagged BRD4 (44 to 477 residues) (unknown origin) using acetyl-histone H4 as substrate after 35 mins by TR-FRET assay
MX1 [17] = assay: Antiproliferative activity against human MX1 cells after 72 hrs by CellTiter-Glo assay; assay type: functional, cell-based; details: MX1, 72 h
[18] = target: T1, Bromodomain-containing protein 4; assay: Inhibition of recombinant His-tagged BRD4 bromodomain 2 (E352 to E168 residues) (unknown origin) after 1 hr by TR-FRET assay
[19] = target: T1, Bromodomain-containing protein 4; assay: Inhibition of recombinant His-tagged BRD4 bromodomain 1 (K57 to E168 residues) (unknown origin) after 1 hr by TR-FRET assay
[20] = target: T1, Bromodomain-containing protein 4; assay: Inhibition of recombinant His-tagged BRD4 (unknown origin) using biotinylated acetyl-histone H4 as substrate by AlphaLisa assay
Mus musculus = species: Mus musculus; assay: Antiinflammatory activity in CD1 mouse assessed as inhibition of LPS-induced IL-6 production pretreated for 1 hr followed by LPS stimulation after 2 hrs by immunoassay relative to control; assay type: functional
MX1 [21] = assay: Antitumor activity against human MX1 cells xenografted subcutaneously in SCID mouse assessed as tumor growth inhibition at 100 mg/kg, po after day 17 relative to control; assay type: functional; details: MX1, 408 h, read-out: TGI
CREB-binding protein = CREB-binding protein (Homo sapiens, UniProt Q92793); assay: Inhibition of His-tagged CREBP (unknown origin) using acetyl-histone H4 as substrate after 35 mins by AlphaScreen assay
Sequence of CREB-binding protein (Q92793 whole entry): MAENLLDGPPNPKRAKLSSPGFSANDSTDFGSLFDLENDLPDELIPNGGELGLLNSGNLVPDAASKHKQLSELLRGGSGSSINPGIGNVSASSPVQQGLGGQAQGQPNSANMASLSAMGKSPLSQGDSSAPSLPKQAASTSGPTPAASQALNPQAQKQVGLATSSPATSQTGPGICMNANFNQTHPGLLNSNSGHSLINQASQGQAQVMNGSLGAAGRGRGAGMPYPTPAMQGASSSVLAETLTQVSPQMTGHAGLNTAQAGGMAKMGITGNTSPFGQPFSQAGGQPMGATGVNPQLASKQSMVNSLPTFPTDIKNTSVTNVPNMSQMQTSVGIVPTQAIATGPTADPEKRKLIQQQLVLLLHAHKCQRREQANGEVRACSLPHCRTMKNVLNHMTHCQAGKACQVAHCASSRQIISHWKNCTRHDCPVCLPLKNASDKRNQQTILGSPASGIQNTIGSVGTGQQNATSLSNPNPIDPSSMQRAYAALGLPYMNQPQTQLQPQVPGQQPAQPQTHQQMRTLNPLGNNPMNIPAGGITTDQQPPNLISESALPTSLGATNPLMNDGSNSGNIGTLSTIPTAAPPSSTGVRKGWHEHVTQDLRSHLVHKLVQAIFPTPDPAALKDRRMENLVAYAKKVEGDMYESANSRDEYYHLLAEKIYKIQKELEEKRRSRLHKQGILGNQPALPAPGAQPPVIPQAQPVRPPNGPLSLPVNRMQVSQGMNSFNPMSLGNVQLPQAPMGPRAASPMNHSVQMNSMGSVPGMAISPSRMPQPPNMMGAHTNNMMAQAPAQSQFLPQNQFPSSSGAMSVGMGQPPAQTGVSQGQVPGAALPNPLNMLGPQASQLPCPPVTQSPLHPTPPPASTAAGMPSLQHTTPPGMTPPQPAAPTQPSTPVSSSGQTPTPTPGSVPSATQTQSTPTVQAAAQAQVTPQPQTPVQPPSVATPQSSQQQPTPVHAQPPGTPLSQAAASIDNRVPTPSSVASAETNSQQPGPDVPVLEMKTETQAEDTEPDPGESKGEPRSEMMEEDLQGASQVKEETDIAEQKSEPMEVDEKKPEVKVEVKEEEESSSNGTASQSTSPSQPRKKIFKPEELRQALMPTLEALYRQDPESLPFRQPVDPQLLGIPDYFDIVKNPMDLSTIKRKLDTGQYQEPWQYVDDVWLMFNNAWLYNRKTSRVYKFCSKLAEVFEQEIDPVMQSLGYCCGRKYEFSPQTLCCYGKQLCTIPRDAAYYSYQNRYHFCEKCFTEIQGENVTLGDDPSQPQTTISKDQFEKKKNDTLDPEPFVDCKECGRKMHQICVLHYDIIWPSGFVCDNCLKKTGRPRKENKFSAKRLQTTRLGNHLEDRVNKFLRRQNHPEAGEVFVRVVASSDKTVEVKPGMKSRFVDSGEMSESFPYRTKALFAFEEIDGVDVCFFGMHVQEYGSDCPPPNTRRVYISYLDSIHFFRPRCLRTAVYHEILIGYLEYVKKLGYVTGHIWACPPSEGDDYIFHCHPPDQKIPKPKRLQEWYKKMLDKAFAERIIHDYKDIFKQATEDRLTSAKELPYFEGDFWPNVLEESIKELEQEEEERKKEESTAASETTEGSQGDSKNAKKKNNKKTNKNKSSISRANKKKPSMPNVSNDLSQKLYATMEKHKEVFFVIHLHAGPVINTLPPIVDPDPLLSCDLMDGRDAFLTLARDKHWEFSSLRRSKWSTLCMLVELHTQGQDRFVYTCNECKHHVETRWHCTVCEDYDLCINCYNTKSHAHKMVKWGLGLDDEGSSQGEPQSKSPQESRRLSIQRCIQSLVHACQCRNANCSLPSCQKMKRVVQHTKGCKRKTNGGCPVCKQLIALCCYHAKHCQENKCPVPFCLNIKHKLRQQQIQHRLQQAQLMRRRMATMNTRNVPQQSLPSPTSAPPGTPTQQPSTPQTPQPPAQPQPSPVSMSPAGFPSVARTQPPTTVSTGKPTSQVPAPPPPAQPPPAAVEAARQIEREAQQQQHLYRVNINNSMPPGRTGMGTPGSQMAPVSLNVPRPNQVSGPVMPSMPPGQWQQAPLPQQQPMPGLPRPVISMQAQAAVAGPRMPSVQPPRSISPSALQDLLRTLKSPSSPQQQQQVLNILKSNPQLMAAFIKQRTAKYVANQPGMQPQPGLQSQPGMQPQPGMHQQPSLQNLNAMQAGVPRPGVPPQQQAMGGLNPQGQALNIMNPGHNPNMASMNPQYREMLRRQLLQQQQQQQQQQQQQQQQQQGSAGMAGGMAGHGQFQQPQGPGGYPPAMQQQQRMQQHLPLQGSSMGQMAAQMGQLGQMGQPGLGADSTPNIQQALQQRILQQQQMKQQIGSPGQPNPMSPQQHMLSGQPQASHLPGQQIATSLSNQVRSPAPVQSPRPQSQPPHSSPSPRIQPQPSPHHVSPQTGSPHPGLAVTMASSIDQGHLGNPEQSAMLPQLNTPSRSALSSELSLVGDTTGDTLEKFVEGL

[22] = target: T1, Bromodomain-containing protein 4; assay: Inhibition of His-tagged BRD4 (unknown origin) using acetyl-histone H4 as substrate after 35 mins by TR-FRET assay
[23] = target: T1, Bromodomain-containing protein 4; assay: Inhibition of recombinant human His-tagged BRD4 bromodomain 1 (44 to 168 residues) expressed in Escherichia coli BL21(DE3) after 30 mins by AlphaScreen assay
[24] = target: T1, Bromodomain-containing protein 4; assay: Inhibition of His-tagged BRD4 bromodomain 1 (K57 to E168 residues) (unknown origin) after 1 hr by TR-FRET assay
MV4-11 [25] = assay: Downregulation of BRD4 in human MV4-11 cells at 100 nM after 18 hrs by immunoblot analysis relative to control; assay type: functional
MV4-11 [26] = assay: Antitumor activity against human MV4-11 cells harboring MLL-AF4 xenografted in mouse assessed as tumor growth inhibition at 1 mg/kg, po qd up to 28 days relative to control; assay type: functional; details: MV4-11, po, 672 h, read-out: TGI
[27] = target: T1, Bromodomain-containing protein 4
Description: Displacement of Halo-tagged histone H3.3 from NanoLuc-tagged full length BRD4 (unknown origin) expressed in HCT116 cells after 18 hrs by NanoBRET assay

[28] = target: T1, Bromodomain-containing protein 4; remark: listed apart in the source
Description: Displacement of Halo-tagged histone H3.3 from N-terminal NanoLuc-tagged BRD4 bromodomain 1 (44 to 168 residues) (unknown origin) expressed in HCT116 cells after 18 hrs by NanoBRET assay

Cc1noc(C)c1-c1cc(C(O)(c2cnccn2)c2c(F)cccc2F)c2[nH]c(=O)[nH]c2c1 (stereo not given)
CC50 (MT4): 9.7 nM

CCNC(=O)CC1N=C(c2c(F)cccc2F)c2cc(OC)ccc2-c2cn(C)c(=O)cc21 (stereo not given)
IC50 [1]: < 0.5 nM
EC50 (MV4-11 [2]): 13 nM

CCn1nc(C)c2c1C(=O)N(c1cc(C)c(=O)n(C)c1)C2c1ccc(Cl)cc1F (stereo not given)
IC50 (MV4-11 [3]): 7.7 nM

Cc1noc(C)c1-c1ccc2c(c1)C(c1ccccc1)N1CCCOC21 (stereo not given)
IC50 [4]: 36 nM

Cc1nnc2c(NC(C)C)nc(-c3nc4cnc(N5CCOC[C@H]5C)cc4n3C(C)CC3CC3)cn12 (stereo not given in full)
IC50 [5]: 9 nM

CC(=O)N1c2ccc(-c3cnn([C@H]4CCNC[C@H]4F)c3)c(OCC3CCC3)c2CC[C@H]1C
IC50 [6]: < 100 nM
IC50 [7]: < 50 nM

[2H]C([2H])([2H])c1nnn(C)c1-c1cnc2c3ccc(C(C)(C)O)cc3n([C@H](c3ccccc3)C3CCC(F)(F)CC3)c2c1
IC50 [8]: < 5 nM
inhibition in vivo at 1 mg/kg [9]: 93%

Cc1noc(C)c1-c1ccc2c(c1)C(c1ccccc1)N(C)C(=O)N2 (stereo not given)
IC50 [4]: 27 nM

Cc1sc2c(c1C)C(c1ccc(Cl)cc1)=N[C@H](CC(=O)OC1CCC(O)CC1)c1nnc(C)n1-2 (stereo not given in full)
Kd [10]: 1.3 nM

COc1ccc(S(=O)(=O)Nc2cccc(Oc3ccc(S(C)(=O)=O)cc3-c3cn(C)c(=O)c4[nH]ccc34)c2)cc1
EC50 (MX1 [11]): 97 nM

COC[C@@H](C)n1c(-c2cn3c(C)nnc3c(NC(C)C)n2)nc2cc3c(cc21)N(C(C)C)S(=O)(=O)C3(C)C
IC50 [5]: 17 nM

COc1cc2c(cc1-c1c(C)noc1C)ncc1nc(C3CCOCC3)n([C@H](C)COC(F)F)c12
remaining at 0.5 h, 1 µM [12]: 43%
remaining at 0.5 h, 1 µM [13]: 56%

Cc1noc(C)c1-c1ccc2c(c1)C(c1ccsc1)(N1CCC[C@H](N)C1)C(=O)N2 (stereo not given in full)
IC50 (MV4-11 [14]): 34 nM

Cc1sc2c(c1C)C(c1ccc(Cl)cc1)=N[C@@H](CC(=O)OC(C)(C)C)c1nnc(C)n1-2
IC50 (MV4-11 [14]): 72 nM

CCNC(=O)CC1N=C(C2CCCCC2)c2cc(OC)ccc2-c2cn(C)c(=O)cc21 (stereo not given)
EC50 (MV4-11 [2]): 8 nM

CNC(=O)N1N=C(c2ccc(N3CC4(CCS4(=O)=O)C3)cc2)c2cc(-n3nc(C)cc3C)ccc2C[C@@H]1C
IC50 (MV4-11 [2]): 80 nM

CC(=O)N1CC(n2cc(C3CC3)c3c2C(c2ccc(Cl)cc2)N(c2cc(C)c4nnn(C)c4n2)C3=O)C1 (stereo not given)
GI50 (MV4-11 [15]): 0.3 nM
IC50 [16]: < 11 nM

CC(=O)N1c2ccc(-c3cnn(C4CC4)c3)cc2C(OC[C@H]2CC2(F)F)C[C@H]1C (stereo not given in full)
IC50 [6]: < 100 nM
IC50 [7]: < 50 nM

COc1ncccc1-c1c(C2CC2)c2c(n1C)C(c1ccc(Cl)cc1)N(c1cc(C)c3nnc(C)n3c1)C2=O (stereo not given)
GI50 (MV4-11 [15]): 3 nM
IC50 [16]: < 11 nM

Cc1noc(C)c1-c1ccc2c(c1)C(c1ccccc1)N(CC1CCN(C)CC1)C(=O)N2 (stereo not given)
IC50 [4]: 31 nM

CCOc1cc(=O)n(C)cc1-c1cc(NC(=O)CCc2ccccc2)ccc1Oc1ccc(F)cc1F
EC50 (MX1 [17]): 398 nM
IC50 [18]: 11 nM
IC50 [19]: 69 nM

Cc1noc(C)c1-c1cc(-c2c(C3CC3)n[nH]c2C2CC2)c2[nH]c(=O)[nH]c2c1
CC50 (MT4): 9.1 nM

CCOC(=O)CC1N=C(c2ccc(Cl)cc2)c2cc(OC)ccc2-c2cn(C)c(=O)cc21 (stereo not given)
IC50 [1]: 3 nM
EC50 (MV4-11 [2]): 2 nM

[2H]C([2H])([2H])c1nnn(C)c1-c1cnc2c3ccc(C(C)(C)O)c(F)c3n([C@H](c3ccccc3)C3CCOCC3)c2c1
IC50 [8]: < 5 nM
inhibition in vivo at 1 mg/kg [9]: 103%

CCS(=O)(=O)c1ccc2c(c1)-c1cn(C)c(=O)cc1OCCCCc1cc(F)cc(F)c1O2
IC50 [20]: 1.3 nM
EC50 (MX1 [17]): 8.7 nM
inhibition (INH) (Mus musculus): 81%

CNC(=O)N1N=C(c2ccc(N3CC4(CCS4(=O)=O)C3)cc2)c2cc(OC(F)(F)F)ccc2C[C@@H]1C
IC50 (MV4-11 [2]): 30 nM

CNC(=O)N1N=C(c2ccc(N3C[C@H]4CC[C@@H](C3)O4)cc2)c2cc(OC)c(OC)cc2C[C@@H]1C
IC50 (MV4-11 [2]): 30 nM

Cc1[nH]c(-c2cc(NS(C)(=O)=O)ccc2Oc2ccccc2)c2c1C(=O)CCC2
inhibition in vivo at 100 mg/kg (MX1 [21]): 80%

CCS(=O)(=O)c1ccc2c(c1)-c1cn(C)c(=O)cc1OCCCCc1cc(Cl)ccc1O2
IC50 [20]: 0.93 nM
EC50 (MX1 [17]): 5.7 nM
inhibition (INH) (Mus musculus): 83%

Cc1nn(C2CC2)c2c1[C@@H](c1ccc(Cl)cc1)N(c1cc(C)c3nnc(C)n3n1)C2=O
IC50 (CREB-binding protein): 3700 nM
IC50 (MV4-11 [3]): 3.4 nM
IC50 [22]: < 11 nM

Cc1cc(N2C(=O)c3c(c(CO)nn3C3CC3)[C@H]2c2ccc(Cl)cc2)cn2c(C)nnc12
IC50 (CREB-binding protein): 1400 nM
IC50 (MV4-11 [3]): 9.4 nM
IC50 [22]: < 11 nM

CCS(=O)(=O)Nc1cc(-c2cn(C)c(=O)c3[nH]ccc23)c(Oc2ccc(F)cc2F)cc1CN1CCOCC1
EC50 (MX1 [11]): 16 nM

CC1=C(C)C2C(c3ccc(Cl)cc3)=N[C@@H](CC(=O)NCCOCCOCCOCCOCCOCCOCCOCCNC(=O)C[C@@H]3N=C(c4ccc(Cl)cc4)c4c(sc(C)c4C)-n4c(C)nnc43)c3nnc(C)n3C2S1 (stereo not given in full)
IC50 [23]: 3.1 nM
IC50 (MV4-11 [14]): 0.17 nM

COc1cc2c(cc1-c1c(C)noc1C)ncc1nc(CN3CCOCC3)n([C@H](C)COC(F)F)c12
remaining at 0.5 h, 1 µM [12]: 1.9%
remaining at 0.5 h, 1 µM [13]: 3.7%

CCS(=O)(=O)Nc1ccc(Oc2ccc(F)cc2F)c(-c2cn(C)c(=O)c3[nH]c(C#CCOC)cc23)c1
Ki [24]: 1.6 nM
EC50 (MX1 [11]): 48 nM

Cc1noc(C)c1-c1ccc2c(c1)C(O)(c1ccccc1)C(=O)N2 (stereo not given)
IC50 (MV4-11 [14]): 58 nM

Cc1cc(N2C(=O)c3c(C4CC4)cn(C4COC4)c3C2c2ccc(Cl)cc2)cn2c(C)nnc12 (stereo not given)
GI50 (MV4-11 [15]): 2.9 nM

Cc1cc(-c2nc3ccc(N4CCOC[C@@H]4C)cc3n2[C@@H](C)c2ccccc2)cn(C)c1=O
IC50 [5]: 12 nM

Cc1sc2c(c1C)C(c1ccc(Cl)cc1)=N[C@@H](CC(=O)NCCCCNC(=O)COc1cccc3c1C(=O)N(C1CCC(=O)NC1=O)C3=O)c1nnc(C)n1-2 (stereo not given in full)
Activity (MV4-11 [25]): >80%

CCOc1cc(=O)n(C)cc1-c1cc(N(CC2CC2)S(=O)(=O)CC)ccc1Oc1ccc(F)cc1F
EC50 (MX1 [17]): 233 nM

COc1nnc2ccc(N3CCC(c4ccc(OCCN5CCN(C)C(=O)[C@H]5C)cc4)CC3)nn12 [AZD-5153]
inhibition in vivo at 1 mg/kg (MV4-11 [26]): 72%
IC50 [27]: 5 nM
IC50 [28]: 1600 nM

Cc1noc(C)c1-c1ccc2c(c1)[C@H](c1ccccc1)N(C)C2=O
IC50 [4]: 14 nM

COc1cc2c(cc1-c1c(C)noc1C)ncc1nc(C3CCC(F)(F)CC3)n([C@H](C)COC(F)F)c12
remaining at 0.5 h, 1 µM [12]: 62%
remaining at 0.5 h, 1 µM [13]: 35%

Cc1sc2c(c1C)C(c1ccc(Cl)cc1)=N[C@@H](CC(=O)OCCCCCCO)c1nnc(C)n1-2
Kd [10]: 0.43 nM

Cc1[nH]c(-c2ccccc2NC2CCCCC2F)cc1C(N)=O (stereo not given)
EC50 (MX1 [11]): 433 nM
